Test results reported in the supplement of paper PMC10733146.

Assays:
Assay in all cases: viability relative to DMSO control (fraction); higher = less drug effect (more viable cells)
Details in all cases: 48 h
[1] = system: primary B-PLL patient cells (S016)
In short: (§1)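 The cells were primary mononuclear tumour cells, either fresh or cryopreserved, isolated by Ficoll from blood or bone marrow or derived from processed lymph node. Each well of a 384-well plate received 4 × 10^4 cells onto compounds pre-plated at five concentrations, with one well per concentration. The medium was RPMI-1640 with penicillin/streptomycin, L-glutamine and human serum, and plates stood at 37 °C and 5% CO2 for 48 h. Viability is reported as CellTiter-Glo luminescence relative to the median of 16 inner DMSO wells.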

[2] = system: primary AML patient cells (S009)
In short: as §1

[3] = system: primary AML patient cells (S002)
In short: as §1

[4] = system: primary T-PLL patient cells (S008)
In short: as §1

[5] = system: primary AML patient cells (S012)
In short: as §1

[6] = system: primary MCL patient cells (S041)
In short: as §1

[7] = system: primary MCL patient cells (S068)
In short: as §1

[8] = system: primary AML patient cells (S085)
In short: as §1

[9] = system: primary AML patient cells (S037)
In short: as §1

[10] = system: primary AML patient cells (S011)
In short: as §1

[11] = system: primary AML patient cells (S081)
In short: as §1

[12] = system: primary BL patient cells (S005)
In short: as §1

[13] = system: primary AML patient cells (S025)
In short: as §1

[14] = system: primary FL patient cells (S022)
In short: as §1

[15] = system: primary AML patient cells (S017)
In short: as §1

[16] = system: primary AML patient cells (S021)
In short: as §1

[17] = system: primary FL patient cells (S087)
In short: as §1

[18] = system: primary AML patient cells (S019)
In short: as §1

[19] = system: primary AML patient cells (S091)
In short: as §1

C[C@@H](Oc1cc(-c2cnn(C3CCNCC3)c2)cnc1N)c1c(Cl)ccc(F)c1Cl [Crizotinib]
viability ([1]; 0.024 µM): 0.971 | viability ([1]; 0.12 µM): 0.944 | viability ([1]; 0.6 µM): 0.874 | viability ([1]; 3 µM): 0.88 | viability ([1]; 15 µM): 0.255 | viability ([2]; 0.024 µM): 0.984 | viability ([2]; 0.12 µM): 0.895 | viability ([2]; 0.6 µM): 0.761 | viability ([2]; 3 µM): 0.57 | viability ([2]; 15 µM): 0.147 | viability ([3]; 0.024 µM): 1.04 | viability ([3]; 0.12 µM): 1.08 | viability ([3]; 0.6 µM): 1.01 | viability ([3]; 3 µM): 0.928 | viability ([3]; 15 µM): 0.652 | viability ([4]; 0.024 µM): 0.983 | viability ([4]; 0.12 µM): 1.02 | viability ([4]; 0.6 µM): 0.969 | viability ([4]; 3 µM): 0.955 | viability ([4]; 15 µM): 0.655 | viability ([5]; 0.024 µM): 1 | viability ([5]; 0.12 µM): 1.06 | viability ([5]; 0.6 µM): 0.999 | viability ([5]; 3 µM): 0.992 | viability ([5]; 15 µM): 0.163 | viability ([6]; 0.024 µM): 0.97 | viability ([6]; 0.12 µM): 1 | viability ([6]; 0.6 µM): 0.879 | viability ([6]; 3 µM): 0.79 | viability ([6]; 15 µM): 0.221 | viability ([7]; 0.024 µM): 0.989 | viability ([7]; 0.12 µM): 1.22 | viability ([7]; 0.6 µM): 1.58 | viability ([7]; 3 µM): 1.72 | viability ([7]; 15 µM): 0.816 | viability ([8]; 0.024 µM): 1.04 | viability ([8]; 0.12 µM): 1.02 | viability ([8]; 0.6 µM): 0.822 | viability ([8]; 3 µM): 0.434 | viability ([8]; 15 µM): 0.18 | viability ([9]; 0.024 µM): 0.974 | viability ([9]; 0.12 µM): 0.982 | viability ([9]; 0.6 µM): 1.01 | viability ([9]; 3 µM): 0.937 | viability ([9]; 15 µM): 0.586 | viability ([10]; 0.024 µM): 0.996 | viability ([10]; 0.12 µM): 1.04 | viability ([10]; 0.6 µM): 0.822 | viability ([10]; 3 µM): 0.358 | viability ([10]; 15 µM): 0.0468 | viability ([11]; 0.024 µM): 0.9 | viability ([11]; 0.12 µM): 0.922 | viability ([11]; 0.6 µM): 0.895 | viability ([11]; 3 µM): 0.85 | viability ([11]; 15 µM): 0.386 | viability ([12]; 0.024 µM): 0.975 | viability ([12]; 0.12 µM): 0.986 | viability ([12]; 0.6 µM): 0.905 | viability ([12]; 3 µM): 0.766 | viability ([12]; 15 µM): 0.309 | viability ([13]; 0.024 µM): 0.983 | viability ([13]; 0.12 µM): 1.05 | viability ([13]; 0.6 µM): 1.02 | viability ([13]; 3 µM): 0.94 | viability ([13]; 15 µM): 0.794 | viability ([14]; 0.024 µM): 1.09 | viability ([14]; 0.12 µM): 1.06 | viability ([14]; 0.6 µM): 1.09 | viability ([14]; 3 µM): 0.959 | viability ([14]; 15 µM): 0.377 | viability ([15]; 0.024 µM): 1.03 | viability ([15]; 0.12 µM): 1.03 | viability ([15]; 0.6 µM): 1.02 | viability ([15]; 3 µM): 0.636 | viability ([15]; 15 µM): 0.299 | viability ([16]; 0.024 µM): 1.06 | viability ([16]; 0.12 µM): 1.1 | viability ([16]; 0.6 µM): 1.1 | viability ([16]; 3 µM): 0.831 | viability ([16]; 15 µM): 0.345 | viability ([17]; 0.024 µM): 0.979 | viability ([17]; 0.12 µM): 1.03 | viability ([17]; 0.6 µM): 0.999 | viability ([17]; 3 µM): 0.821 | viability ([17]; 15 µM): 0.111 | viability ([18]; 0.024 µM): 0.982 | viability ([18]; 0.12 µM): 1.11 | viability ([18]; 0.6 µM): 0.911 | viability ([18]; 3 µM): 0.665 | viability ([18]; 15 µM): 0.298 | viability ([19]; 0.024 µM): 0.922 | viability ([19]; 0.12 µM): 0.97 | viability ([19]; 0.6 µM): 0.817 | viability ([19]; 3 µM): 0.249 | viability ([19]; 15 µM): 0.0707
